Source: ChEMBL document CHEMBL1275483, “Staphylococcus aureus cell wall stress stimulon gene-lacZ fusion strains: potential for use in screening for cell wall-active antimicrobials” (2008)
In brackets after ≈: the same amount, converted by molar mass. Where a SMILES comes first, the peptide text is derived from it. Bridges are numbered along the chain shown (N, C = ends). [ ]: non-standard residue; d: D form. The star is where a group is joined. Ileψ(thiazoline)Cys = CC[C@H](C)[C@H](N)C1=N[C@H](C(=O)*)CS1; dOrn = NCCC[C@@H](N)C(=O)O

Columns and labels:
Type in all cases: functional
Staphylococcus aureus [1] = assay: Induction of Ppbp2::lacZ gene expression in Staphylococcus aureus SH1000 at 13.4 ug/ml after 2 hrs by beta-galactosidase reporter gene assay relative to untreated control
Staphylococcus aureus [2] = assay: Induction of PlytR::lacZ gene expression in Staphylococcus aureus SH1000 at 13.4 ug/ml after 2 hrs by beta-galactosidase reporter gene assay relative to untreated control
Staphylococcus aureus [3] = assay: Antimicrobial activity against beta-lactamase producing Staphylococcus aureus SH1000
Staphylococcus aureus [4] = assay: Induction of PsgtB::lacZ gene expression in Staphylococcus aureus SH1000 at 13.4 ug/ml after 2 hrs by beta-galactosidase reporter gene assay relative to untreated control
Staphylococcus aureus [5] = assay: Induction of PtcaA::lacZ gene expression in Staphylococcus aureus SH1000 at 13.4 ug/ml after 2 hrs by beta-galactosidase reporter gene assay relative to untreated control
Staphylococcus aureus [6] = assay: Induction of PvraSr::lacZ gene expression in Staphylococcus aureus SH1000 at 13.4 ug/ml after 2 hrs by beta-galactosidase reporter gene assay relative to untreated control
Staphylococcus aureus [7] = assay: Induction of PsgtB::lacZ gene expression in Staphylococcus aureus SH1000 at 3 ug/ml after 2 hrs by beta-galactosidase reporter gene assay relative to untreated control
Staphylococcus aureus [8] = assay: Induction of PvraSr::lacZ gene expression in Staphylococcus aureus SH1000 at 3 ug/ml after 2 hrs by beta-galactosidase reporter gene assay relative to untreated control
Staphylococcus aureus [9] = assay: Induction of Ppbp2::lacZ gene expression in Staphylococcus aureus SH1000 at 3 ug/ml after 2 hrs by beta-galactosidase reporter gene assay relative to untreated control
Staphylococcus aureus [10] = assay: Induction of PlytR::lacZ gene expression in Staphylococcus aureus SH1000 at 3 ug/ml after 2 hrs by beta-galactosidase reporter gene assay relative to untreated control
Staphylococcus aureus [11] = assay: Induction of PtcaA::lacZ gene expression in Staphylococcus aureus SH1000 at 3 ug/ml after 2 hrs by beta-galactosidase reporter gene assay relative to untreated control
Staphylococcus aureus [12] = assay: Induction of PvraSr::lacZ gene expression in Staphylococcus aureus SH1000 at 150 ug/ml after 2 hrs by beta-galactosidase reporter gene assay relative to untreated control
Staphylococcus aureus [13] = assay: Induction of PsgtB::lacZ gene expression in Staphylococcus aureus SH1000 at 150 ug/ml after 2 hrs by beta-galactosidase reporter gene assay relative to untreated control
Staphylococcus aureus [14] = assay: Induction of PlytR::lacZ gene expression in Staphylococcus aureus SH1000 at 150 ug/ml after 2 hrs by beta-galactosidase reporter gene assay relative to untreated control
Staphylococcus aureus [15] = assay: Induction of PtcaA::lacZ gene expression in Staphylococcus aureus SH1000 at 150 ug/ml after 2 hrs by beta-galactosidase reporter gene assay relative to untreated control
Staphylococcus aureus [16] = assay: Induction of Ppbp2::lacZ gene expression in Staphylococcus aureus SH1000 at 150 ug/ml after 2 hrs by beta-galactosidase reporter gene assay relative to untreated control
Staphylococcus aureus [17] = assay: Induction of PvraSr::lacZ gene expression in Staphylococcus aureus SH1000 at 2.5 ug/ml after 2 hrs by beta-galactosidase reporter gene assay relative to untreated control
Staphylococcus aureus [18] = assay: Induction of Ppbp2::lacZ gene expression in Staphylococcus aureus SH1000 at 2.5 ug/ml after 2 hrs by beta-galactosidase reporter gene assay relative to untreated control
Staphylococcus aureus [19] = assay: Induction of PsgtB::lacZ gene expression in Staphylococcus aureus SH1000 at 2.5 ug/ml after 2 hrs by beta-galactosidase reporter gene assay relative to untreated control
Staphylococcus aureus [20] = assay: Induction of PlytR::lacZ gene expression in Staphylococcus aureus SH1000 at 2.5 ug/ml after 2 hrs by beta-galactosidase reporter gene assay relative to untreated control
Staphylococcus aureus [21] = assay: Induction of PtcaA::lacZ gene expression in Staphylococcus aureus SH1000 at 2.5 ug/ml after 2 hrs by beta-galactosidase reporter gene assay relative to untreated control
Staphylococcus aureus [22] = assay: Induction of PtcaA::lacZ gene expression in Staphylococcus aureus SH1000 at 1 ug/ml after 2 hrs by beta-galactosidase reporter gene assay relative to untreated control
Staphylococcus aureus [23] = assay: Induction of PsgtB::lacZ gene expression in Staphylococcus aureus SH1000 at 1 ug/ml after 2 hrs by beta-galactosidase reporter gene assay relative to untreated control
Staphylococcus aureus [24] = assay: Induction of PlytR::lacZ gene expression in Staphylococcus aureus SH1000 at 1 ug/ml after 2 hrs by beta-galactosidase reporter gene assay relative to untreated control
Staphylococcus aureus [25] = assay: Induction of Ppbp2::lacZ gene expression in Staphylococcus aureus SH1000 at 1 ug/ml after 2 hrs by beta-galactosidase reporter gene assay relative to untreated control
Staphylococcus aureus [26] = assay: Induction of PvraSr::lacZ gene expression in Staphylococcus aureus SH1000 at 1 ug/ml after 2 hrs by beta-galactosidase reporter gene assay relative to untreated control

## CC[C@H](C)[C@H](N)C1=N[C@H](C(=O)N[C@@H](CC(C)C)C(=O)N[C@H](CCC(=O)O)C(=O)N[C@H](C(=O)N[C@H]2CCCCNC(=O)[C@H](CC(N)=O)NC(=O)[C@@H](CC(=O)O)NC(=O)[C@H](Cc3cnc[nH]3)NC(=O)[C@@H](Cc3ccccc3)NC(=O)[C@H]([C@@H](C)CC)NC(=O)[C@@H](CCCN)NC2=O)[C@@H](C)CC)CS1 [BACITRACIN] ({Ileψ(thiazoline)Cys}-L[dE]IK[dOrn]I[dF]H[dD]N; lactam 4-C)
Staphylococcus aureus [1]
  fold change (FC): 3.7
Staphylococcus aureus [2]
  fold change (FC): 1.94
Staphylococcus aureus [3]
  MIC: 2 µg/mL (≈ 1.41 µM)
Staphylococcus aureus [4]
  fold change (FC): 4.63
Staphylococcus aureus [5]
  fold change (FC): 3.99
Staphylococcus aureus [6]
  fold change (FC): 1.92

## O=C(N[C@H](CO)[C@H](O)c1ccc([N+](=O)[O-])cc1)C(Cl)Cl [CHLORAMPHENICOL]
Staphylococcus aureus [7]
  fold change (FC): 0.93
Staphylococcus aureus [3]
  MIC: 0.5 µg/mL (≈ 1.55 µM)
Staphylococcus aureus [8]
  fold change (FC): 0.88
Staphylococcus aureus [9]
  fold change (FC): 0.94
Staphylococcus aureus [10]
  fold change (FC): 1.07
Staphylococcus aureus [11]
  fold change (FC): 1.04

## N[C@@H]1CONC1=O [CYCLOSERINE]
Staphylococcus aureus [12]
  fold change (FC): 4.08
Staphylococcus aureus [3]
  MIC: 1 µg/mL (≈ 9.79 µM)
Staphylococcus aureus [13]
  fold change (FC): 15.63
Staphylococcus aureus [14]
  fold change (FC): 3.13
Staphylococcus aureus [15]
  fold change (FC): 4.6
Staphylococcus aureus [16]
  fold change (FC): 3.41

## CC[C@H]1OC(=O)[C@H](C)[C@@H](O[C@H]2C[C@@](C)(OC)[C@@H](O)[C@H](C)O2)[C@H](C)[C@@H](O[C@@H]2O[C@H](C)C[C@H](N(C)C)[C@H]2O)[C@](C)(O)C[C@@H](C)C(=O)[C@H](C)[C@@H](O)[C@]1(C)O [ERYTHROMYCIN]
Staphylococcus aureus [17]
  fold change (FC): 0.8
Staphylococcus aureus [18]
  fold change (FC): 1.15
Staphylococcus aureus [19]
  fold change (FC): 0.93
Staphylococcus aureus [3]
  MIC: 2 µg/mL (≈ 2.73 µM)
Staphylococcus aureus [20]
  fold change (FC): 1.04
Staphylococcus aureus [21]
  fold change (FC): 1.12

## C=C(NC(=O)[C@@H](NC(=O)[C@H](Cc1cnc[nH]1)NC(=O)[C@@H](NC(=O)[C@H](CO)NC(=O)[C@@H]1CS[C@@H](C)[C@H]2NC(=O)C(=C)NC(=O)[C@H](NC(=O)[C@H](CCCCN)NC(=O)[C@H](CCSC)NC(=O)[C@H](CC(N)=O)NC(=O)[C@@H]3CS[C@@H](C)[C@@H](NC(=O)[C@H](CCCNN)NC(=O)[C@@H]4CS[C@@H](C)[C@@H](NC(=O)[C@@H]5CSC[C@@H](NC(=O)/C(=C\C)NC(=O)[C@@H](N)[C@@H](C)CC)C(=O)N[C@@H]([C@@H](C)CC)C(=O)NC(=C)C(=O)N[C@@H]([C@@H](C)CC)C(=O)N5)C(=O)N5CCC[C@H]5C(=O)NCC(=O)N4)C(=O)NCC(=O)N[C@@H](C)C(=O)N[C@@H]([C@@H](C)CC)C(=O)N[C@@H](CCSC)C(=O)NCC(=O)N3)[C@H](C)SC[C@H](NC2=O)C(=O)N[C@H](Cc2cnc[nH]2)C(=O)N1)[C@@H](C)CC)C(C)C)C(=O)N[C@@H](CCCCN)C(=O)O [NISIN]
Staphylococcus aureus [22]
  fold change (FC): 0.97
Staphylococcus aureus [23]
  fold change (FC): 1.02
Staphylococcus aureus [24]
  fold change (FC): 1.21
Staphylococcus aureus [25]
  fold change (FC): 1.02
Staphylococcus aureus [26]
  fold change (FC): 0.57
